This passage reports IC50 results from US20240116918A1, “SUBSTITUTED TRICYCLIC COMPOUND AS PRMT5 INHIBITOR AND USE THEREOF” (NANJING SANHOME PHARMACEUTICAL CO., LTD., priority 2019, published 2024).

The experiment addresses PRMT5 (Homo sapiens (Human), UniProt O14744). In words: In vitro evaluation of kinase activity (PRMT5 enzymatic assay, [3H]-SAM FlashPlate). Conditions: polypeptide substrate H4(1-21)S1ac 100 nM, [3H]-SAM 250 nM, 25° C., 60 min; read-out: Enzyme IC50 PRMT5. Format: biochemical. As to the method:
Compounds: the compounds of the present invention prepared in the above examples. Each compound was formulated into a 10 mM stock solution with DMSO, and finally diluted into 10 concentrations for detection, with the final concentrations being 10000.00 nM, 3333.33 nM, 1111.11 nM, 370.37 nM, 123.46 nM, 41.15 nM, 13.72 nM, 4.57 nM, 1.52 nM, and 0.51 nM.
Reagents and consumables: PRMTS, purchased from Active Motif, Cat. No. 31921; polypeptide substrate H4(1-21)S1ac, purchased from Gill Biochemical (Shanghai) Co., Ltd., Cat. No. 342095; [^3H]-SAM, purchased From PerkinElmer, Cat. No. NET155V001MC; SAM, purchased from Sigma, Cat. No. A7007-100MG; SAH, purchased from Sigma, Cat. No. A9384-25MG; DTT, purchased from Sangon Bioengineering (Shanghai) Co., Ltd., Cat. No. A620058-0005. Corning-3657, purchased from Corning, Cat. No. 3657; Echo Qualified 384-Well, purchased from Labcyte, Cat. No. P-05525; FlashPlate, purchased from Perkin Elmer, Cat. No. SMP410J001PK.
2.1. Preparation of reaction buffer and reaction stop solution: the composition of 1× reaction buffer was 10 mM Tris-HCl, pH 8.0; 0.01% Tween-20; and 1 mM DTT. The composition of the reaction stop solution was 125 μM […] solution.
The compounds were dissolved in 100% DMSO to prepare 10 mM stock solutions and then diluted to desired concentrations on an Echo 384 well plate.
250 nL of the compounds diluted above were transferred from the Echo 384 well plate to a 384 well reaction plate using the Echo550 instrument.
PRMT5 was added to 1× reaction buffer to form 1.67× enzyme solution.
The polypeptide substrate and [^3H]-SAM were added to 1× reaction buffer to form 2.5× substrate solution (the final concentrations were 100 nM and 250 nM, respectively).
15 μL of 1.67× enzyme solution was added to the wells of a 384 well reaction plate. For control wells without enzymatic activity, the enzyme solution was replaced with 15 μL of 1× reaction buffer. The plate was centrifuged at 1000 rpm for 1 min and incubated at room temperature for 15 min. […]

The structures appear in SMILES notation.

PRMT5, sequence (O14744 whole entry): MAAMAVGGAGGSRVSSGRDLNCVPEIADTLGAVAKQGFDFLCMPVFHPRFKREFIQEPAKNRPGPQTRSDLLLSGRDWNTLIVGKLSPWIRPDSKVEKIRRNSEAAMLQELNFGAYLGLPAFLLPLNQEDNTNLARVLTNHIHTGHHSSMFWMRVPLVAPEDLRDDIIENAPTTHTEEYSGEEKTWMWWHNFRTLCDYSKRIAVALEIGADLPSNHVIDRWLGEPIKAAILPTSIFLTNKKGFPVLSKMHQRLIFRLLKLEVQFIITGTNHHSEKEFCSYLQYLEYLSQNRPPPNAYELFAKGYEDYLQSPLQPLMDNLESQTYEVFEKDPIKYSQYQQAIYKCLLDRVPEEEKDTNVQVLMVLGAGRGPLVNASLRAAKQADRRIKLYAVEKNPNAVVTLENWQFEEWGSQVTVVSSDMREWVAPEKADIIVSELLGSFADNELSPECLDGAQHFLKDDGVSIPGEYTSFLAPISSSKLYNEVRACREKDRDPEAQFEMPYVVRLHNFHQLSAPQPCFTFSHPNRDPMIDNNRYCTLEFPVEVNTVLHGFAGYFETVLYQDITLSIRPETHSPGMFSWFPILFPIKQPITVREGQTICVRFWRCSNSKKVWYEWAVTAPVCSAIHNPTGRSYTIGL
PRMT5, sequence (Q9BQA1 whole entry partner): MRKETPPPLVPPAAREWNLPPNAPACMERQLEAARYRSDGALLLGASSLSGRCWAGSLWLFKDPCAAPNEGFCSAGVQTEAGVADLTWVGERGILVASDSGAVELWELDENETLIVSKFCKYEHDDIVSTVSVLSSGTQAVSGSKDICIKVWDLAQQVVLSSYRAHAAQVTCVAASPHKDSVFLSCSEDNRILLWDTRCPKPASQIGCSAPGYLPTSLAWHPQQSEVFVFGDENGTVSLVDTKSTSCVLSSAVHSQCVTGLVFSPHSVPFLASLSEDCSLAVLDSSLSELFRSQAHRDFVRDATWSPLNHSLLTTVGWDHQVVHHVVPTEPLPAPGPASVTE

By IC50 is commonly meant the midpoint of a concentration-inhibition curve. For `CC(=O)N1CC2(CC(Nc3ccc4c(c3)C(=O)N(C[C@H](O)CN3CCc5ccccc5C3)CC43CC3)C2)C1` [Example 10, (R)-7′-((2-Acetyl-2-azaspiro[3.3]hept-6-yl)amino)-2′-(3-(3,4-dihydroisoquinolin-2(1H)-yl)-2-hydroxypropyl)-2′,3′-dihydro-1′H-spiro[cyclopropane-1,4′-isoquinolin]-1′-one], the IC50 was 2.66 µM.
